Source: patent US12428416B2 (California Institute of Technology, priority 2018, dated 2025)

Tests used:
[1] = test system: drug-sensitive cell lines of Table 4; assay: Cell line growth retardation assay, average over sensitive cohort; format: cell-based, Human; conditions: Homo sapiens, 144 h; geometric mean of IC50s over sensitive cohort (Table 4); 6 days growth; read-out: AvgSens IC50
Method: (§1) Cell Line Growth Retardation Assay
(§2) Cells were seeded at densities of 1,000-5,000 cells per well in 48-well tissue culture plates. After a 24 h rest period, cells were treated with compound at 10 μM, 2 μM, 0.4 μM, 0.08 μM, 0.016 μM, and 0.0032 μM. A group of cells were treated with the vehicle in which the compound was prepared and served as a control. The cells were grown in the presence of compounds for 6 days and were counted on day 0 and day 6. All cell counting was performed using a Synentec Cellavista plate imager. […] Growth inhibition was calculated as a ratio of cell population doublings in the presence of compound versus the absence of compound. […] IC50 values for each compound were calculated by fitting curves to data points from each dose-response assay using the Proc NLIN function in SAS for Windows version 9.2 (SAS Institute, Inc.).
(§3) Designation of Sensitivity and Resistant Cohorts and Calculation of Average IC50 Values
(§4) Human cancer cell lines were grouped as “sensitive” or “resistant” to ERK1 inhibition based on whether their growth was retarded by KO-947 (i.e., 1,5,6,8-tetrahydro-6-(phenylmethyl)-3-(4-pyridinyl)-7H-pyrazolo[4,3-g]quinazolin-7-one) and SCH772984 (i.e., (3R)-1-[2-oxo-2-[4-[4-(2-pyrimidinyl)phenyl]-1-piperazinyl]ethyl]-N-[3-(4-pyridinyl)-1H-indazol-5-yl]-3-pyrrolidinecarboxamide) (data not shown; see Table 4). These sensitive and resistant cohorts were interrogated for response to each compound, and IC50s were calculated for each cell line using the same technique described above. Average IC50s for the sensitive and resistant cohorts were calculated as geometric means of the group.

ERK2 = ERK2 (Homo sapiens, UniProt P28482); assay: ERK1 and 2 Enzymatic Inhibition Assay (ERK2); format: biochemical; conditions: 10 assay concentrations 2×10^−6 M to 6×10^−11 M, 1% DMSO
Method: (§5) ERK1 and 2 Enzymatic Inhibition Assay
(§6) For the Ki determination assay, 200 μM stock solutions of compounds were subjected to a serial, semi-logarithmic dilution using 100% DMSO as a solvent. 10 distinct concentrations were prepared, with a dilution endpoint of 6×10^−9 M in 100% DMSO. 100% DMSO was used as a control. 10 μL from each of the serial dilutions were aliquoted into separate wells of a 96-well plate and 90 μL of water were added to each of those wells. The plate was shaken thoroughly, and 5 μL from each of the plate's wells were transferred into wells of the assay plate. The final volume of wells in the assay plate was 50 μL. All compounds were tested at 10 assay concentrations in the range from 2×10^−6 M to 6×10^−11 M. The final DMSO concentration in the wells of the assay plate was 1% in all cases.

[2] = Compound metabolic stability in hepatocytes; format: in vitro ADME; conditions: hepatocytes from mice and rats (species not given); class symbols without key
Method: The metabolic stability of compounds was determined in hepatocytes from mice and rats. Compounds were diluted to 5 μM in Williams' Medium E from 10 mM stock solutions. 10 μL of each compound was aliquoted into a well of a 96-well plate and reactions were started by aliquoting 40 μL of a 625,000 cells/mL suspension into each well. The plate was incubated at 37° C. with 5% CO2. At each corresponding time point, the reaction was stopped by quenching with ACN containing internal standards (IS) at a 1:3. Plates were shaken at 500 rpm for 10 min, and then centrifuged at 3,220×g for 20 minutes. Supernatants were transferred to another 96-well plate containing a dilution solution. Supernatants were analyzed by LC/MS/MS.
Compound half-life was estimated using the following equation: % Remaining Compound=Peak Area Ratios of Tested Compound vs. Internal Standard at End Point/Peak Area Ratios of Tested Compound vs. Internal Standard at Start Point Mouse Xenograft Studies

[3] = test system: drug-resistant cell lines of Table 4; assay: Cell line growth retardation assay, average over resistant cohort; format: cell-based, Human; conditions: Homo sapiens, 144 h; geometric mean of IC50s over resistant cohort (Table 4); 6 days growth; read-out: AvgRes IC50
Method: as §1, §2, §3, §4

ERK1 = ERK1 (Homo sapiens, UniProt P27361); assay: ERK1 and 2 Enzymatic Inhibition Assay (ERK1); format: biochemical; conditions: 10 assay concentrations 2×10^−6 M to 6×10^−11 M, 1% DMSO
Method: as §5, §6

Chain of ERK2 (P28482 whole entry): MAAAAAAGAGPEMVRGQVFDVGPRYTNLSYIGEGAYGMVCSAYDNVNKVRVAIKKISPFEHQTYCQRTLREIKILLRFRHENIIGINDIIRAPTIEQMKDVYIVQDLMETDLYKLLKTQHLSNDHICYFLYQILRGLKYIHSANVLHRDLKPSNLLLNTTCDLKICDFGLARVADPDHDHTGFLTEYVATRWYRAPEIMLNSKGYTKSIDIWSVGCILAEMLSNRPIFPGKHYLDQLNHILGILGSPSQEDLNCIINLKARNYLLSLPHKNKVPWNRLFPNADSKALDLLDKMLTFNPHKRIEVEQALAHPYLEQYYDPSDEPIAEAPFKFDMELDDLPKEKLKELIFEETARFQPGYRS
Chain of ERK1 (P27361 whole entry): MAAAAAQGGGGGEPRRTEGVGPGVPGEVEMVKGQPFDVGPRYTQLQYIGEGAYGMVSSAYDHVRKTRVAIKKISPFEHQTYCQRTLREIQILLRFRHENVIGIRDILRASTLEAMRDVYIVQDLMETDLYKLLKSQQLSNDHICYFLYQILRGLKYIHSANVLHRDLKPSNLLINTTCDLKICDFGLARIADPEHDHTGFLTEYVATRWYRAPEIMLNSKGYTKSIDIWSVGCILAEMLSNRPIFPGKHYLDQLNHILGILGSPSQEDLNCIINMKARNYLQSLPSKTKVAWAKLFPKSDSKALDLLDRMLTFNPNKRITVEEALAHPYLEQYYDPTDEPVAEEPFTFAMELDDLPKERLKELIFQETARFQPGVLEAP

SMILES	IC50 [1]	Kd (ERK2)	half-life at 1 µM [2]	IC50 [3]	Kd (ERK1)
C[C@@H](NC(=O)c1ncc(-c2c[nH]c3ncc(N4CCOCC4)cc23)cn1)c1cccc(Cl)c1 [Compound 20, (R)—N-(1-(3-chlorophenyl)ethyl)-5-(5-morpholino-1H-pyrrolo[2,3-b]pyridin-3-yl)pyrimidine-2-carboxamide]	≤ 250 nM	≤ 10 nM	> 25 min	> 500 nM	≤ 10 nM
Cc1cccc(C(C)NC(=O)c2ncc(-c3c[nH]c4ncc(N5CCOCC5)cc34)cn2)c1 (stereo in doubt) [Compound 50, (R)-5-(5-morpholino-1H-pyrrolo[2,3-b]pyridin-3-yl)-N-(1-(m-tolyl)ethyl)pyrimidine-2-carboxamide]	≤ 250 nM	≤ 10 nM	> 25 min	> 500 nM	≤ 10 nM
C[C@H](Cc1ccccc1)NC(=O)c1ncc(-c2c[nH]c3ncc(N4CCOCC4)cc23)cn1 [Compound 31, (R)-5-(5-morpholino-1H-pyrrolo[2,3-b]pyridin-3-yl)-N-(1-phenylpropan-2-yl)pyrimidine-2-carboxamide]	> 500 nM	≤ 10 nM	< 25 min	> 500 nM	≤ 10 nM
C[C@@H](NC(=O)c1ncc(-c2c[nH]c3ncc(N4CCOCC4)cc23)cn1)c1ccc(Cl)cc1 [Compound 25, (R)—N-(1-(4-chlorophenyl)ethyl)-5-(5-morpholino-1H-pyrrolo[2,3-b]pyridin-3-yl)pyrimidine-2-carboxamide]	> 500 nM	≤ 10 nM	> 25 min	> 500 nM	≤ 10 nM
c1ccc([C@@H]2CN=C(c3ncc(-c4c[nH]c5ncc(N6CCOCC6)cc45)cn3)O2)cc1 [Compound 29, (R)-4-(3-(2-(5-phenyl-4,5-dihydrooxazol-2-yl)pyrimidin-5-yl)-1H-pyrrolo[2,3-b]pyridin-5-yl)morpholine]	> 500 nM	11 to 100 nM	> 25 min	> 500 nM	11 to 100 nM
CC(NC(=O)c1ncc(-c2c[nH]c3ncc(N4CCOCC4)cc23)cn1)c1ccccc1 (stereo in doubt) [Compound 22, (S)-5-(5-morpholino-1H-pyrrolo[2,3-b]pyridin-3-yl)-N-(1-phenylethyl)pyrimidine-2-carboxamide]	> 500 nM	> 100 nM	> 25 min	> 500 nM	> 100 nM
c1ccc([C@H]2COC(c3ncc(-c4c[nH]c5ncc(N6CCOCC6)cc45)cn3)=N2)cc1 [Compound 27, (S)-4-(3-(2-(4-phenyl-4,5-dihydrooxazol-2-yl)pyrimidin-5-yl)-1H-pyrrolo[2,3-b]pyridin-5-yl)morpholine]	> 500 nM	≤ 10 nM	> 25 min	> 500 nM	≤ 10 nM
c1ccc([C@@H]2COC(c3ncc(-c4c[nH]c5ncc(N6CCOCC6)cc45)cn3)=N2)cc1 [Compound 28, (R)-4-(3-(2-(4-phenyl-4,5-dihydrooxazol-2-yl)pyrimidin-5-yl)-1H-pyrrolo[2,3-b]pyridin-5-yl)morpholine]	> 500 nM	> 100 nM	> 25 min	> 500 nM	> 100 nM
N#Cc1ccccc1CCNC(=O)c1ncc(-c2c[nH]c3ncc(N4CCOCC4)cc23)cn1 [Compound 66, N-(2-cyanophenethyl)-5-(5-morpholino-1H-pyrrolo[2,3-b]pyridin-3-yl)pyrimidine-2-carboxamide]	> 500 nM	≤ 10 nM	–	> 500 nM	≤ 10 nM
CC(NC(=O)c1ncc(-c2c[nH]c3ncc(Br)cc23)cn1)c1ccccc1 (stereo in doubt) [Compound 67, (R)-5-(5-bromo-1H-pyrrolo[2,3-b]pyridin-3-yl)-N-(1-phenylethyl)pyrimidine-2-carboxamide]	> 500 nM	11 to 100 nM	–	> 500 nM	11 to 100 nM
Cc1cc(-c2cnc3[nH]cc(-c4cnc(C(=O)NC(C)c5ccccc5)nc4)c3c2)ccn1 (stereo in doubt) [Compound 40, (R)-5-(5-(2-methylpyridin-4-yl)-1H-pyrrolo[2,3-b]pyridin-3-yl)-N-(1-phenylethyl)pyrimidine-2-carboxamide]	≤ 250 nM	≤ 10 nM	–	> 500 nM	≤ 10 nM
O=C(NCCc1ccccc1)c1ccc(-c2c[nH]c3ncc(N4CCOCC4)cc23)nn1 [Compound 13, 6-(5-morpholino-1H-pyrrolo[2,3-b]pyridin-3-yl)-N-phenethylpyridazine-3-carboxamide]	> 500 nM	> 100 nM	–	> 500 nM	11 to 100 nM
O=C(NC(c1ccccc1)C1CC1)c1ncc(-c2c[nH]c3ncc(N4CCOCC4)cc23)cn1 (stereo not shown) [Compound 49, N-(cyclopropyl(phenyl)methyl)-5-(5-morpholino-1H-pyrrolo[2,3-b]pyridin-3-yl)pyrimidine-2-carboxamide]	251 to 500 nM	≤ 10 nM	–	> 500 nM	≤ 10 nM
C[C@H](c1ccccc1)N(C)C(=O)c1ncc(-c2c[nH]c3ncc(N4CCOCC4)cc23)cn1 [Compound 17]	> 500 nM	11 to 100 nM	–	> 500 nM	11 to 100 nM
C[C@@H](NC(=O)c1ncc(-c2c[nH]c3ncc(N4CCOCC4)cc23)cn1)c1cccc(C(F)(F)F)c1 [Compound 21, (R)-5-(5-morpholino-1H-pyrrolo[2,3-b]pyridin-3-yl)-N-(1-(3-(trifluoromethyl)phenyl)ethyl)pyrimidine-2-carboxamide]	251 to 500 nM	11 to 100 nM	–	> 500 nM	≤ 10 nM
O=C(NCc1ccccc1)c1ncc(-c2c[nH]c3ncc(N4CCOCC4)cc23)cn1 [Compound 7, N-benzyl-5-(5-morpholino-1H-pyrrolo[2,3-b]pyridin-3-yl)pyrimidine-2-carboxamide]	> 500 nM	11 to 100 nM	–	> 500 nM	≤ 10 nM
C[C@H](NC(=O)c1ncc(-c2c[nH]c3ncc(N4CCOCC4)cc23)cn1)c1ccccc1Cl [Compound 45, (S)—N-(1-(2-chlorophenyl)ethyl)-5-(5-morpholino-1H-pyrrolo[2,3-b]pyridin-3-yl)pyrimidine-2-carboxamide]	≤ 250 nM	≤ 10 nM	–	> 500 nM	≤ 10 nM
CN(C)CC(NC(=O)c1ncc(-c2c[nH]c3ncc(N4CCOCC4)cc23)cn1)c1ccccc1 (stereo in doubt) [Compound 57, (S)—N-(2-(dimethylamino)-1-phenylethyl)-5-(5-morpholino-1H-pyrrolo[2,3-b]pyridin-3-yl)pyrimidine-2-carboxamide]	> 500 nM	> 100 nM	–	> 500 nM	> 100 nM
C[C@H](CNC(=O)c1ncc(-c2c[nH]c3ncc(N4CCOCC4)cc23)cn1)c1ccccc1 [Compound 32]	251 to 500 nM	≤ 10 nM	–	> 500 nM	≤ 10 nM
O=C(NCCc1ccccn1)c1ncc(-c2c[nH]c3ncc(N4CCOCC4)cc23)cn1 [Compound 60, 5-(5-morpholino-1H-pyrrolo[2,3-b]pyridin-3-yl)-N-(2-(pyridin-2-yl)ethyl)pyrimidine-2-carboxamide]	> 500 nM	11 to 100 nM	–	> 500 nM	11 to 100 nM
